The target of one data set is CYP 2C19 (Homo sapiens (Human), UniProt P33261). Description: in vitro. How it is done: (§1) CYP450 inhibition profiling provides valuable information regarding any possible drug-drug interactions for a test compound.
(§2) All experiments were performed using P450-Glo™ Assay Systems (Promega) in accordance with the manufacturer's protocols. The P450-Glo™ Assays provide a luminescent readout-based method for measuring cytochrome P450 activity. A conventional cytochrome P450 reaction was performed by incubating the cytochrome P450 and a luminogenic cytochrome P450 substrate. The substrates in the P450-Glo™ assays are derivatives of beetle luciferin. The derivatives themselves are not substrates for luciferase but are converted by cytochrome P450s to luciferin, which in turn reacts with luciferase to produce light. The amount of light produced was directly proportional to cytochrome P450 activity. All test points were performed in quadruplicates. Control membranes (without CYPs) represented the Negative control (baseline).
(§3) The following reference compounds were used to assess CYP inhibition: […]

A further data set deals with CYP 3A4 (Homo sapiens (Human), UniProt P08684). The data set is described as follows: in vitro. Particulars: % Mean. How it is done:
as §1, §2, §3

The target in a further data set is CYP 1A2 (Homo sapiens (Human), UniProt P05177). Description: in vitro. How it is done: as §1, §2, §3
CYP 1A2, sequence (P05177 whole entry): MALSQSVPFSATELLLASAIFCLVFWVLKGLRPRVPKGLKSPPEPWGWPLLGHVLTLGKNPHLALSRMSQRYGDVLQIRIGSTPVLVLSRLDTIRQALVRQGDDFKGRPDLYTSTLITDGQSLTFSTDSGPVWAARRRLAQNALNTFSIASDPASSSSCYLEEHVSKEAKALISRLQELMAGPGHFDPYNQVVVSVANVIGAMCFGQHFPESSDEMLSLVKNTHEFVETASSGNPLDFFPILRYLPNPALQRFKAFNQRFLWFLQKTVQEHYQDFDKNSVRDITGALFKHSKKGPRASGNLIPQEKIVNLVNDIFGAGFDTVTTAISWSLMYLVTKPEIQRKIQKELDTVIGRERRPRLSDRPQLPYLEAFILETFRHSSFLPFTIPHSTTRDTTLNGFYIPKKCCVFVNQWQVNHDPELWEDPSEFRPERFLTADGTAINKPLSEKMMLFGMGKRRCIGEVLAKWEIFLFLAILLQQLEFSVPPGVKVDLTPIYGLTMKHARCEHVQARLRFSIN
In another data set the target is hERG channel (Homo sapiens (Human), UniProt Q12809). From the text: Fluorescence polarization (FP) readout technology is based on the observation that when a small fluorescent molecule (the tracer) is excited by the polarized light, the emitted light is largely depolarized because of the rapid rotation of the molecule in the solution during its fluorescence lifetime. The hERG predictor assay provides valuable information about the possible binding of test compounds to the potassium channel and potential QT prolongation on […].
hERG channel, sequence (Q12809 whole entry): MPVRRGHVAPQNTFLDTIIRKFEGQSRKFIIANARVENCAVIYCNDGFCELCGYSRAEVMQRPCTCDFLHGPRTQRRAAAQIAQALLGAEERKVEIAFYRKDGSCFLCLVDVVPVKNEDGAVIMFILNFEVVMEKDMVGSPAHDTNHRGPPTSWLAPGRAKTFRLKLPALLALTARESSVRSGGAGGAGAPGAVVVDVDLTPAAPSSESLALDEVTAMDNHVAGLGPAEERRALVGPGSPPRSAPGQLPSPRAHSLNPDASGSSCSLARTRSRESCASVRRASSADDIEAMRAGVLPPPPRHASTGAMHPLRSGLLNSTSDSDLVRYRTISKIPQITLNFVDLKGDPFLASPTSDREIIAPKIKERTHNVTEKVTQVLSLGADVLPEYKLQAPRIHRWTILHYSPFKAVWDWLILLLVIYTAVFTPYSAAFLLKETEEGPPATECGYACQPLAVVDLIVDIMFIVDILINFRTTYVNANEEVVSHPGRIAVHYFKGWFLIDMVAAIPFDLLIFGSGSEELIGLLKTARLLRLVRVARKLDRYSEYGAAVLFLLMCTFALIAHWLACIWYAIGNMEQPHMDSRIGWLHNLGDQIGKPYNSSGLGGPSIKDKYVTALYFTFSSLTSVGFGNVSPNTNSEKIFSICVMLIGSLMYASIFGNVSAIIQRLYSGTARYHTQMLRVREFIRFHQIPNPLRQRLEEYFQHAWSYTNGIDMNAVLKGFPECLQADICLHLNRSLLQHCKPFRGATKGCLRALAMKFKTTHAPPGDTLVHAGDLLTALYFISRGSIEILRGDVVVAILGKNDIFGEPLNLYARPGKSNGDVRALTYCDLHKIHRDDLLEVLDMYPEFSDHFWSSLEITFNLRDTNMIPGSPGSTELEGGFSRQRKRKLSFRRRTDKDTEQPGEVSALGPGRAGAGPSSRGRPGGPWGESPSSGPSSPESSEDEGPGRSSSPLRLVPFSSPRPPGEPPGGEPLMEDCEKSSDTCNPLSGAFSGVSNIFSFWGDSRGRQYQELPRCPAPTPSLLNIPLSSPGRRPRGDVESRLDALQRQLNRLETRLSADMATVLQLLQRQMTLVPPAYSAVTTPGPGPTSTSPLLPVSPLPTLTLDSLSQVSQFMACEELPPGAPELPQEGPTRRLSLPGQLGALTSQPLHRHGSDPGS
All experiments were performed using the Predictor™ hERG Fluorescence Polarization Assay in accordance with the manufacturer's protocol PV5365 (Invitrogen, Carlsbad, Calif.).
The hERG reaction was performed by incubating the tracer and membranes with hERG channel for 2-4 hours in the solution. The fluorescence polarization was maximal when nothing interfered with the reaction of the tracer and hERG membranes (minimal tracer rotation). But when a tested compound competed with the tracer for the hERG channel, the polarization of emitted light lowered due to the ability of free unbound tracer to rotate rapidly in the solution.
All test points for the compounds were performed in quadruplicates. Three dilutions of the tested compounds were assessed—1 μM, 5 μM and 20 μM.

A further data set concerns TA 98. Description: Ames Test, strain TA 98. From the text: (§4) The test used amino acid-dependent strains of Salmonella typhimurium and Escherichia coli to detect point mutations which involved substitution, addition or deletion of one or a few DNA base pairs. Point mutations were introduced in the histidine (Salmonella typhimurium) or the tryptophan (Escherichia coli) operon, making the tester strains incapable of producing these amino acids. The test detected mutations that revert the mutations present in the bacteria, restoring the functional capability to synthesize histidine or tryptophan. The revertant bacteria were detected by the ability to grow in the absence of the amino acid required by the parent test strain. A mutagenic potential of a tested compound was assessed by exposing these bacterial strains to different concentrations of the compounds and estimating number of revertant colonies grown in the absence (trace quantities) of the amino acid.
(§5) DMSO was used as the negative control.
(§6) For each experiment, tester strain cultures were grown overnight in Oxoid nutrient broth #2 at 37° C. with shaking at 235 rpm to a density of 1-2×10^9 colony forming units/mL (OD540˜2).
(§7) The tester strain (10 μL of night culture) was mixed with the test agent (10 µL of the DMSO stock) and GM liquid medium (30 μL). The obtained mixture was incubated at room temperature for 5 min in a sterile 1.5 mL tube. Then, to the tube was added 200 μL of molten top agar stored at 44° C. to prevent solidifying. After mixing with a pipette, the mixture was poured onto the surface of a GM agar plate (2.0 mL of GM agar per plate). After solidifying the top agar, the plate was inverted and incubated at 37° C. for 48 hours. Then, results were expressed as number of revertant colonies per plate.

In data set [1] the test system is wp2[pKM101]+wp2 uvrA mixed 1:2. Description: Ames Test, E. coli.
Text: as §4, §5, §6, §7

Setting [2] is: TA 98, 200 μM, baseline = mean of negative control + SD.
Setting [3] is: 50 μM (row printed 100; conc. column shifted).
Where [4] appears, read: 100 μM (row printed 200; conc. column shifted).
Setting [5] is: 200 μM (row printed 0; conc. column shifted).

The source of these data is patent US11401255B2, “Small molecule activators of Parkin enzyme function” (Mayo Foundation for Medical Education and Research, priority 2016, dated 2022).

Where two headings read alike, the source gives them in different places.

Broadly, the inhibition is the drop in the measured response relative to a control, in per cent.

CYP 3A4, sequence (P08684 whole entry): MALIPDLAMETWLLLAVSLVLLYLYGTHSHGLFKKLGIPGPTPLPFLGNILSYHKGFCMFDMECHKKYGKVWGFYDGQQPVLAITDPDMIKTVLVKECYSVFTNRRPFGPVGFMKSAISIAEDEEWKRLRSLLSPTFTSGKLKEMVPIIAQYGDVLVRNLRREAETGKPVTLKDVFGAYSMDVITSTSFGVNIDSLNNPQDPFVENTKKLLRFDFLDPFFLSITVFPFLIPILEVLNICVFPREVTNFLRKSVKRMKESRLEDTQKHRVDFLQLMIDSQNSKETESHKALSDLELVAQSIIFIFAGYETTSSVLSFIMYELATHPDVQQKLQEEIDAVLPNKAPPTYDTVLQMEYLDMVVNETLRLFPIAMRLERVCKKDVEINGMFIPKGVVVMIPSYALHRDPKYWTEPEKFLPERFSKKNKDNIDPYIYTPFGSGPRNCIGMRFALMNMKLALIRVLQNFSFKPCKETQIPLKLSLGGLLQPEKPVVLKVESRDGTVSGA
CYP 2C19, sequence (P33261 whole entry): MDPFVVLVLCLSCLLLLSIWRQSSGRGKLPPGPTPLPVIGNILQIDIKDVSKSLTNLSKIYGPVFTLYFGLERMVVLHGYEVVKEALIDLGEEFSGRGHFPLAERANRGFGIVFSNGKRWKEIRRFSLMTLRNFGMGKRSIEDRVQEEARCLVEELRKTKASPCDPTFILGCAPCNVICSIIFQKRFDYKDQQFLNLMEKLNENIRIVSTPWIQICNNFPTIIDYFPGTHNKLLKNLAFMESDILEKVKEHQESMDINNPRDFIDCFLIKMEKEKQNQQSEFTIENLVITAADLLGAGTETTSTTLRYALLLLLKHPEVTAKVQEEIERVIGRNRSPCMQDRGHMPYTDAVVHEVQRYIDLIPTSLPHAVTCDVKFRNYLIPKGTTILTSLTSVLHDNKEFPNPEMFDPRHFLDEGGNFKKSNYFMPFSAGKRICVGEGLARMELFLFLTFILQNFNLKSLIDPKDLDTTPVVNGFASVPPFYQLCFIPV

Turning to `O=C(Cn1cnc2c1CCCC2)Nc1ccc(-c2ccccc2)cc1` [Compound 1], the inhibition at 10 µM at CYP 2C19 (% Mean) was 9.4%; at CYP 3A4, -24.4%; against CYP 1A2 (% (individual replicates)), 73.2%; against CYP 1A2 (% Mean), 69%. For the same molecule, the entries for the “Binding values, % Mean” value on hERG channel (1 μM), on hERG channel (5 μM) and at hERG channel (20 μM) were 83%, 99% and 103%, respectively. For the same molecule, the “Fold increase (over baseline)” value in the data set with TA 98 (TA 98, 50 μM) is listed as 0.46; in the data set with TA 98 (TA 98, 100 μM) it was 0.2; in the data set with TA 98 (setting [2]), 0; in data set [1] (setting [3]) it was 0; in data set [1] (setting [4]), 0; in data set [1] (setting [5]) it was 0. The “Mean ± SD” value is given as 1.5 ± 0.7 revertant colonies per plate with TA 98 (TA 98, 50 μM); 0.5 ± 0.7 revertant colonies per plate in the data set on TA 98 (TA 98, 100 μM); 0 ± 0 revertant colonies per plate in the data set with TA 98 (TA 98, 200 μM); 0 ± 0 revertant colonies per plate in data set [1] (setting [3]); 0 ± 0 revertant colonies per plate in data set [1] (setting [4]); 0 ± 0 revertant colonies per plate in data set [1] (setting [5]).
For `CC(C)c1nccn1CC(=O)Nc1ccc(-c2ccccc2)cc1` [Compound 2], the inhibition at 10 µM on CYP 2C19 (% Mean) is -9.5%; against CYP 3A4, -14.3%; against CYP 1A2 (% (individual replicates)) it was 49.3%; at CYP 1A2 (% Mean), 40.4%. The “Binding values, % Mean” value at hERG channel (1 μM) is 47%; on hERG channel (5 μM), 74%; on hERG channel (20 μM) it was 91%. The “Fold increase (over baseline)” value in the data set with TA 98 (TA 98, 50 μM) stood at 0.3; in the data set on TA 98 (TA 98, 100 μM), 0.2; with TA 98 (setting [2]), 0.2; in data set [1] (setting [3]), 0.63; in data set [1] (setting [4]), 0.38; in data set [1] (setting [5]), 0.5. The “Mean ± SD” value is recorded as 1 ± 1.41 revertant colonies per plate with TA 98 (TA 98, 50 μM); 0.5 ± 0.7 revertant colonies per plate in the data set on TA 98 (TA 98, 100 μM); 0.5 ± 0.7 revertant colonies per plate in the data set with TA 98 (TA 98, 200 μM); 2.5 ± 2.12 revertant colonies per plate in data set [1] (setting [3]); 1.5 ± 0.7 revertant colonies per plate in data set [1] (setting [4]); 2 ± 2.82 revertant colonies per plate in data set [1] (setting [5]).
Turning to `CC(C)(C)Sc1ccc(NC(=O)Cn2ccnc2)cc1` [Compound 3], the inhibition at 10 µM at CYP 2C19 (% (individual replicates)) came out at 97.4%; on CYP 2C19 (% Mean) it was 92.5%; on CYP 3A4, 88.3%; against CYP 1A2 (% (individual replicates)) it was 98.6%; against CYP 1A2 (% Mean), 97.6%. Moreover, the “Binding values, % Mean” value on hERG channel (1 μM) was 41%; at hERG channel (5 μM), 115%; on hERG channel (20 μM), 99%. The “Fold increase (over baseline)” value in the data set with TA 98 (TA 98, 50 μM) is reported as 0.46; with TA 98 (TA 98, 100 μM), 0.2; in the data set on TA 98 (setting [2]), over 312; in data set [1] (setting [3]) it was 1; in data set [1] (setting [4]), 1.75; in data set [1] (setting [5]), over 75. For the same molecule, the “Mean ± SD” value is reported as 1.5 ± 0.7 revertant colonies per plate in the data set with TA 98 (TA 98, 50 μM); 0.5 ± 0.7 revertant colonies per plate with TA 98 (TA 98, 100 μM); >1000 revertant colonies per plate in the data set on TA 98 (TA 98, 200 μM); 4 ± 0 revertant colonies per plate in data set [1] (setting [3]); 7 ± 0 revertant colonies per plate in data set [1] (setting [4]); >300 revertant colonies per plate in data set [1] (setting [5]). For the same molecule, the “mutagenic activity” value is recorded as “mutagenic activity” in the data set with TA 98 (TA 98, 200 μM) and “mutagenic activity” in data set [1] (200 μM).
Take `O=C(Cn1ccnc1-c1ccccn1)Nc1ccc(-c2ccccc2)cc1` [Compound 4]: the inhibition at 10 µM is -10.3% against CYP 2C19 (% Mean), 1.4% at CYP 3A4 and 5.6% on CYP 1A2 (% Mean). For the same molecule, the “Binding values, % Mean” value on hERG channel (1 μM) came out at 26%; at hERG channel (5 μM) it was 27%; at hERG channel (20 μM) it was 22%. The “Fold increase (over baseline)” value turned out to be 0.46 with TA 98 (TA 98, 50 μM); 0 with TA 98 (TA 98, 100 μM); 0 in the data set with TA 98 (setting [2]); 0.75 in data set [1] (setting [3]); 0.38 in data set [1] (setting [4]); 1.38 in data set [1] (setting [5]). The “Mean ± SD” value is reported as 1.5 ± 0.7 revertant colonies per plate with TA 98 (TA 98, 50 μM); 0 ± 0 revertant colonies per plate in the data set on TA 98 (TA 98, 100 μM); 0 ± 0 revertant colonies per plate with TA 98 (TA 98, 200 μM); 3 ± 1.41 revertant colonies per plate in data set [1] (setting [3]); 1.5 ± 0.7 revertant colonies per plate in data set [1] (setting [4]); 5.5 ± 2.12 revertant colonies per plate in data set [1] (setting [5]).
As for `Cc1nc2c(c(N3CCCN(Cc4ccccc4)CC3)n1)CCCC2` [Compound 31], the inhibition at 10 µM at CYP 2C19 (% (individual replicates)) is 14%; on CYP 2C19 (% Mean), 16.2%; against CYP 3A4, -16.1%; on CYP 1A2 (% Mean) it was -0.7%. The results for the “Binding values, % Mean” value at hERG channel (1 μM), at hERG channel (5 μM) and at hERG channel (20 μM) were 45%, 73% and 88%, respectively. The “Fold increase (over baseline)” value in the data set with TA 98 (TA 98, 50 μM) was 0.2; with TA 98 (TA 98, 100 μM), 0.3; in the data set on TA 98 (setting [2]) it was 0.3; in data set [1] (setting [3]) it was 1.13; in data set [1] (setting [4]), 0.38; in data set [1] (setting [5]), 0. Moreover, the “Mean ± SD” value in the data set with TA 98 (TA 98, 50 μM) is recorded as 0.5 ± 0.7 revertant colonies per plate; in the data set with TA 98 (TA 98, 100 μM), 1 ± 0 revertant colonies per plate; in the data set on TA 98 (TA 98, 200 μM), 1 ± 1.41 revertant colonies per plate; in data set [1] (setting [3]), 4.5 ± 3.53 revertant colonies per plate; in data set [1] (setting [4]), 1.5 ± 0.7 revertant colonies per plate; in data set [1] (setting [5]), 0 ± 0 revertant colonies per plate.
